Data: ChEMBL document CHEMBL1133524 (J Med Chem, 2000)
≈ marks a conversion by molar mass, not a printed value. Calls of active or inactive are those of the source. No cut-off for these calls is given here.

Experiments:
HOS [1] = assay: Tested in vitro for cytotoxic activity against bone(HOS) cell line; type: functional, Homo sapiens
1A9 [2] = assay: Tested in vitro for cytotoxic activity against Human ovarian cancer (IA9) cell line; type: functional
MCF7 = assay: Tested in vitro for cytotoxic activity against breast cancer (MCF-7) cell line; type: functional, Homo sapiens
PC-3 = assay: Tested in vitro for cytotoxic activity against prostate cancer (PC3) cell line; type: functional, Homo sapiens
SK-MEL-2 = assay: Tested in vitro for cytotoxic activity against melanoma (SKMEL-2) cell line; type: functional, Homo sapiens
U-87 MG [3] = assay: Tested in vitro for cytotoxic activity against glioblastoma (U-87-MG) cell line; type: functional, Homo sapiens, U-87MG ATCC
KB [4] = assay: Tested in vitro for cytotoxic activity against P-glycoprotein-expressing epidermoid carcinoma of the nasopharynx(KB-VIN) cell line; type: functional, Homo sapiens
A549 = type: functional, Homo sapiens
Description: Tested in vitro for cytotoxic activity against lung carcinoma (A-549) cell line

HCT-8 [5] = assay: Tested in vitro for cytotoxic activity against ileocecal carcinoma (HCT-8) cell line; type: functional, Homo sapiens
KB [6] = assay: Tested in vitro for cytotoxic activity against epidermoid carcinoma of the nasopharynx(KB) cell line; type: functional, Homo sapiens
U-87 MG [7] = assay: Tested in vitro for cytotoxic activity against glioblastoma (U-87-MG) cell line; NA means Not active; type: functional, cell-based; conditions: Homo sapiens; U-87MG ATCC
KB [8] = assay: Tested in vitro for cytotoxic activity against epidermoid carcinoma of the nasopharynx(KB) cell line; NA means Not active; type: functional, cell-based; conditions: Homo sapiens
HOS [9] = assay: Tested in vitro for cytotoxic activity against bone(HOS) cell line; NA means Not active; type: functional, cell-based; conditions: Homo sapiens
1A9 [10] = assay: Tested in vitro for cytotoxic activity against Human ovarian cancer (IA9) cell line; NA means Not active; type: functional, cell-based
Tubulin = Tubulin (Bos taurus, UniProt Q6B856+Q862L2+Q862F3); assay: Inhibition of bovine tubulin polymerization; type: functional
HCT-8 [11] = assay: Tested in vitro for cytotoxic activity against ileocecal carcinoma (HCT-8) cell line; NA means Not active; type: functional, cell-based; conditions: Homo sapiens

Row | Compound | ED50 (HOS [1]) [µg/mL] | ED50 (1A9 [2]) [µg/mL] | ED50 (MCF7) [µg/mL] | ED50 (PC-3) [µg/mL] | ED50 (SK-MEL-2) [µg/mL] | ED50 (U-87 MG [3]) [µg/mL] | ED50 (KB [4]) [µg/mL] | ED50 (A549) [µg/mL] | ED50 (HCT-8 [5]) [µg/mL] | ED50 (KB [6]) [µg/mL] | ED50 (U-87 MG [7]) | ED50 (KB [8]) | ED50 (HOS [9]) | ED50 (1A9 [10]) | Inhibition (HOS [1]) [%] | Inhibition (KB [6]) [%] | Inhibition (PC-3) [%] | IC50 (Tubulin) [µM] | ED50 (HCT-8 [11]) | Inhibition (KB [4]) [%]
1 | COc1cccc(-c2nc(O)c3cc(OC)ccc3n2)c1 | > 20 | 3.4 (≈ 12 µM) | 8 (≈ 28.3 µM) | > 20 | > 20 | > 20 | 3.5 (≈ 12.4 µM) |  |  |  |  |  |  |  |  |  |  |  |  | 
2 | COc1ccc(-c2nc(O)c3ccccc3n2)cc1OC | > 20 | > 20 | > 20 | > 20 | > 20 |  | > 20 | > 20 | > 20 | > 20 | inactive |  |  |  |  |  |  |  |  | 
3 | COc1cccc(-c2nc(O)c3cc(N4CCC(C)CC4)ccc3n2)c1 |  | 0.8 (≈ 2.29 µM) | 10 (≈ 28.6 µM) |  | 7.5 (≈ 21.5 µM) |  | 2.5 (≈ 7.15 µM) | 6 (≈ 17.2 µM) | 4 (≈ 11.4 µM) |  |  |  |  |  |  |  |  |  |  | 
4 | COc1cccc(-c2nc(O)c3cc(N4CCOCC4)ccc3n2)c1 |  | 3.8 (≈ 11.3 µM) | 4.5 (≈ 13.3 µM) |  | 4.8 (≈ 14.2 µM) | 20 (≈ 59.3 µM) | 3.7 (≈ 11 µM) |  |  | 8.2 (≈ 24.3 µM) |  |  |  |  |  |  |  |  |  | 
5 | COc1cccc(-c2nc(O)c3ccccc3n2)c1 | > 20 | > 20 | 26 (≈ 103 µM) | > 20 | > 20 |  | > 20 | > 20 | > 20 |  | inactive | inactive |  |  |  |  |  |  |  | 
6 | COc1cccc(-c2nc(O)c3cc(F)ccc3n2)c1 |  |  | > 20 | 20 (≈ 74 µM) | > 20 | > 20 | 18 (≈ 66.6 µM) |  | > 20 | > 20 |  |  | inactive | inactive |  |  |  |  |  | 
7 | COc1ccc(C2NC(=O)c3ccccc3N2)cc1OC (configuration not stated) | > 20 |  | 20 (≈ 70.3 µM) | > 20 | > 20 |  | 16 (≈ 56.3 µM) | > 20 | > 20 | > 20 | inactive |  |  |  | 24 | 28 | 30 | > 40 |  | 
8 | COc1ccccc1C1NC(=O)c2ccccc2N1 (configuration not stated) | > 20 |  | > 20 | > 20 | < 20 |  | 10.2 (≈ 40.1 µM) | > 20 | > 20 | > 20 | inactive |  |  |  |  | 32 | 30 | > 40 |  | 
9 | COc1cccc(C2NC(=O)c3ccccc3N2)c1 (configuration not stated) | > 20 | 1 (≈ 3.93 µM) | > 20 | > 20 | > 20 | > 20 | 1.2 (≈ 4.72 µM) | 3 (≈ 11.8 µM) | 1.5 (≈ 5.9 µM) | 3 (≈ 11.8 µM) |  |  |  |  |  |  |  | 5.6 |  | 
10 | COc1cccc(C2NC(=O)c3cc(Cl)ccc3N2)c1 (configuration not stated) | 20 (≈ 69.3 µM) | 0.27 (≈ 0.935 µM) | 16 (≈ 55.4 µM) | 2.5 (≈ 8.66 µM) | < 2.5 | > 20 | 0.42 (≈ 1.45 µM) | 0.6 (≈ 2.08 µM) | 0.48 (≈ 1.66 µM) | 0.95 (≈ 3.29 µM) |  |  |  |  |  |  |  | 1.5 |  | 
11 | COc1cc(OC)cc(C2NC(=O)c3ccccc3N2)c1 (configuration not stated) | > 20 |  | > 20 | > 20 | 4.4 (≈ 15.5 µM) | > 20 | 1.6 (≈ 5.63 µM) | 5 (≈ 17.6 µM) | 3 (≈ 10.6 µM) | 4.7 (≈ 16.5 µM) |  |  |  |  |  |  |  | 12 |  | 
12 | COc1cccc(-c2nc(O)c3cc4c(cc3n2)OCO4)c1 | > 20 | > 20 | > 20 | > 20 | > 20 |  | > 20 | > 20 |  | > 20 | inactive |  |  |  |  |  |  |  | inactive | 
13 | COc1cccc(-c2nc(O)c3cc(Cl)ccc3n2)c1 | 17 (≈ 59.3 µM) | > 20 |  | 4.5 (≈ 15.7 µM) | 4.8 (≈ 16.7 µM) | 10 (≈ 34.9 µM) | 6.5 (≈ 22.7 µM) | 3.2 (≈ 11.2 µM) | 6 (≈ 20.9 µM) |  |  |  |  |  |  |  |  |  |  | 
14 | COc1ccc(C2NC(=O)c3ccccc3N2)c(OC)c1 (configuration not stated) | > 20 |  | > 20 | > 20 | > 20 |  | 7.6 (≈ 26.7 µM) | > 20 | > 20 | > 20 | inactive |  |  |  | 40 | 43 |  | > 40 |  | 
15 | COc1ccc(C2NC(=O)c3ccccc3N2)cc1 (configuration not stated) | > 20 | 20 (≈ 78.7 µM) | > 20 | > 20 | > 20 |  | > 20 | > 20 | > 20 | > 20 | inactive |  |  |  |  |  | 14 | > 40 |  | 39
16 | COc1cccc(-c2nc(O)c3cc(N(C)C)ccc3n2)c1 | > 20 | 0.49 (≈ 1.66 µM) | 0.85 (≈ 2.88 µM) | 15 (≈ 50.8 µM) | 19 (≈ 64.3 µM) | > 20 | 0.42 (≈ 1.42 µM) | 14 (≈ 47.4 µM) |  | 10 (≈ 33.9 µM) |  |  |  |  |  |  |  |  |  | 
17 | COc1ccc(OC)c(C2NC(=O)c3ccccc3N2)c1 (configuration not stated) | > 20 | 10 (≈ 35.2 µM) | > 20 | > 20 | > 20 | > 20 | 8.4 (≈ 29.5 µM) | > 20 | > 20 | > 20 |  |  |  |  | 40 | 40 |  | 32 |  | 
18 | COc1ccc(-c2nc(O)c3ccccc3n2)c(OC)c1 | > 20 |  | > 20 | > 20 | > 20 | > 20 | > 20 | > 20 | > 20 | > 20 |  |  |  | inactive |  |  |  |  |  | 
19 | COc1ccc(OC)c(-c2nc(O)c3ccccc3n2)c1 | > 20 | > 20 | > 20 | > 20 | > 20 |  | > 20 | > 20 | > 20 | > 20 | inactive |  |  |  |  |  |  |  |  | 
20 | COc1cccc(-c2cc(O)c3cc(N4CCCC4)ccc3n2)c1 |  |  |  |  |  |  |  |  |  |  |  |  |  |  |  |  |  | 0.32 |  | 
21 | COc1cccc(-c2nc(O)c3cc(OC)c(OC)cc3n2)c1 | > 20 |  | 12 (≈ 38.4 µM) | 15 (≈ 48 µM) | 18 (≈ 57.6 µM) | > 20 |  | > 20 | > 20 |  |  |  |  |  |  |  |  |  |  | 
22 | COc1cccc(-c2nc(O)c3cc(N4CCCCC4)ccc3n2)c1 |  | 0.9 (≈ 2.68 µM) | 8.5 (≈ 25.3 µM) | 10 (≈ 29.8 µM) | 4.5 (≈ 13.4 µM) | 9 (≈ 26.8 µM) | 0.6 (≈ 1.79 µM) | 2.8 (≈ 8.35 µM) | 4.3 (≈ 12.8 µM) | 10 (≈ 29.8 µM) |  |  |  |  |  |  |  |  |  | 
